Results reported in US8058285B2, “Substituted pyrido [3′, 2′: 4, 5] thieno [3, 2-D] pyrimidines and pyrido [3′, 2′: 4, 5] furo [3, 2-D] pyrimidines used as inhibitors of the PDE-4 and/or the release of TNF-ALPHA” (The Medicines Company (Leipzig) GmbH, priority 2004, dated 2011).
Counter-ions that a name gives are not always drawn.

Key:
PDE-4A = target: T1, PDE-4A (Homo sapiens, UniProt P27815); assay: PDE-4A inhibitory assay (SPA); type: biochemical
T1 construct: PDE-4A catalytic domain comprising amino acids 342-704; made in house; host or cells: Escherichia coli
T1 sequence (P27815 342-704): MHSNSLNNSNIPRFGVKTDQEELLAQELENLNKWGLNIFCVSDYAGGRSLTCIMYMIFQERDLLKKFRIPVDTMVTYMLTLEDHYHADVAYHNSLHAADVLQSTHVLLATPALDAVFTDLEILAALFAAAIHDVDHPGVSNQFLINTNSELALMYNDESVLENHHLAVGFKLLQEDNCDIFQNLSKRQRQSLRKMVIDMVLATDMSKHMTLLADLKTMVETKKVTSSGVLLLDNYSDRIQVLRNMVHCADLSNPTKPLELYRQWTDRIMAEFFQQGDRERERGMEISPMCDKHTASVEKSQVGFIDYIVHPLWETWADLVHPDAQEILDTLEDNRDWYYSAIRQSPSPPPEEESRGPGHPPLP
Procedure, shortened: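 Human recombinant PDE-4A catalytic domain (aa 342-704), E. coli-expressed. SPA with 1 μM [^3H]-cAMP substrate in 100 mM Tris-HCl pH 7.5, 5 mM MgCl2, 1% DMSO; 20 min at 22° C. Non-specific activity with 100 μM rolipram subtracted.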

TNFα release = assay: LPS-induced TNFα release in diluted human blood (ELISA); type: cell-based; details: LPS 1 μg/ml, human blood diluted 1:5, 24 h; read-out: IC50 value in the TNFα inhibitory assay
Source text: Isolated leukocytes can be stimulated for the release of cytokines in different ways. Lipopolysaccharides (LPS) are a stimulus for the investigation of the TNFα release. LPS is part of bacterial cell walls and is released when the bacteria are killed (by antibiotics or the natural immune system). LPS stimulates in particular the activity of phagocytizing leukocytes (tissue macrophages, granulocytes, monocytes) and causes the infiltration of leukocytes from the peripheral blood into the affected tissue. A cytokine of special significance for these mechanisms is TNFα which is secreted in large amounts by the affected cells. The main source are here monocytes and macrophages. TNFα initiates and prolongs the inflammatory process in cooperation with other mediators.
For the investigation of the effect on the LPS-induced TNFα release a method was used which was described by Marx, D., Tassabehji, M., Heer, S., Hüttenbrink, K.-B., and I. Szelenyi, Pulmonary Pharmacology & Therapeutics (2002) 15, 7-15. The method is briefly: Human blood was taken from various donors, rendered incoagulable by the addition of 10 mM Na citrate and diluted 1:5 with RPMI 1640 cell culture medium. The test substances were added to the blood samples at various concentrations. 15 min later, the leukocytes were stimulated by the addition of lipopolysaccharides (LPS) from Salmonella abortus equi at a final concentration of 1 μg/ml. After the incubation of the test batches at 37° C. and under 5% CO2 in a water-saturated air for 24 h, the blood was centrifuged and the TNFα concentration in the cell-free supernatant was accurately measured using a purchasable ELISA (BD Biosciences) according to the manufacturer's instructions.

Compound: Cc1cc(-c2ccccc2)nc2sc3c(N4CCNCC4)nc(OCCO)nc3c12 [2-(2-Hydroxy-ethoxy)-9-methyl-7-phenyl-4-(piperazin-1-yl)-pyrido[3′,2′:4,5]thieno[3,2-d]pyrimidine]
- IC50 (PDE-4A): 0.002 to 0.05 µM
- IC50 (TNFα release): < 2 µM

Compound: CCOc1nc(N2CCNCC2)c2sc3nc(C)c(Cc4ccc([N+](=O)[O-])cc4)c(C)c3c2n1 [2-Ethoxy-7,9-dimethyl-8-(4-nitro-benzyl)-4-(piperazin-1-yl)-pyrido[3′,2′:4,5]thieno[3,2-d]pyrimidine]
- IC50 (PDE-4A): 0.002 to 0.05 µM
- IC50 (TNFα release): < 2 µM

Compound: CCOc1nc(N2CCNCC2)c2sc3nc(-c4ccc(OC)c(OC)c4)cc(C)c3c2n1 [2-Ethoxy-7-(3,4-dimethoxy-phenyl)-9-methyl-4-(piperazin-1-yl)-pyrido[3′,2′:4,5]thieno[3,2-d]pyrimidine]
- IC50 (PDE-4A): 0.002 to 0.05 µM
- IC50 (TNFα release): < 2 µM

Compound: CCOc1nc(N2CCNCC2)c2sc3nc(-c4ccc(OC)cc4)cc(C)c3c2n1 [2-Ethoxy-7-(4-methoxy-phenyl)-9-methyl-4-(piperazin-1-yl)-pyrido[3′,2′:4,5]thieno[3,2-d]pyrimidine]
- IC50 (PDE-4A): 0.002 to 0.05 µM
- IC50 (TNFα release): < 2 µM

Compound: CCOc1nc(N2CCNCC2)c2sc3nc(-c4ccc(C(F)(F)F)cc4)cc(C)c3c2n1 [2-Ethoxy-7-(4-trifluoro-methyl-phenyl)-9-methyl-4-(piperazin-1-yl)-pyrido[3′,2′:4,5]thieno[3,2-d]pyrimidine]
- IC50 (PDE-4A): 0.002 to 0.05 µM
- IC50 (TNFα release): < 2 µM

Compound: CCOc1nc(N2CCNCC2)c2sc3nc(C)cc(-c4ccccc4)c3c2n1 [2-Ethoxy-7-methyl-9-phenyl-4-(piperazin-1-yl)-pyrido[3′,2′:4,5]thieno[3,2-d]pyrimidine-hydrochloride]
- IC50 (TNFα release): < 2 µM

Compound: CCOc1nc(N2CCNCC2)nc2c1sc1nc(-c3ccc(C(N)=O)cc3)cc(C(F)(F)F)c12 [4-(4-Ethoxy-9-trifluoromethyl-2-piperazin-1-yl-pyrido[3′,2′:4,5]thieno[3,2-d]pyrimidin-7-yl)-benzamide trifluoroacetate]
- IC50 (TNFα release): < 2 µM

Compound: CCOc1nc(N2CCNCC2)nc2c1sc1nc(-c3ccncc3)cc(C(F)(F)F)c12 [4-Ethoxy-2-(piperazin-1-yl)-7-(4-pyridyl)-9-trifluoromethyl-pyrido[3′,2′:4,5]thieno[3,2-d]pyrimidine]
- IC50 (PDE-4A): 0.002 to 0.05 µM
- IC50 (TNFα release): < 2 µM

Compound: CCOc1nc(N2CCNCC2)nc2c1sc1nc(-c3cccnc3)cc(C(F)(F)F)c12 [4-Ethoxy-2-piperazin-1-yl-7-(3-pyridyl)-9-trifluoromethyl-pyrido[3′,2′:4,5]thieno[3,2-d]pyrimidine]
- IC50 (PDE-4A): 0.002 to 0.05 µM
- IC50 (TNFα release): < 2 µM

Compound: CCOc1nc(N2CCNCC2)nc2c1sc1nc(C)c(Cc3ccc([N+](=O)[O-])cc3)c(C)c12 [4-Ethoxy-7,9-dimethyl-8-(4-nitro-benzyl)-2-(piperazin-1-yl)-pyrido[3′,2′:4,5]thieno[3,2-d]pyrimidine]
- IC50 (PDE-4A): 0.002 to 0.05 µM
- IC50 (TNFα release): < 2 µM

Compound: CCOc1nc(N2CCNCC2)nc2c1sc1nc(-c3ccccc3)cc(-c3ccccc3)c12 [4-Ethoxy-7,9-diphenyl-2-(piperazin-1-yl)-pyrido[3′,2′:4,5]thieno[3,2-d]pyrimidine]
- IC50 (PDE-4A): 0.002 to 0.05 µM
- IC50 (TNFα release): < 2 µM

Compound: CCOc1nc(N2CCNCC2)nc2c1sc1nc(-c3ccc[n+]([O-])c3)cc(C(F)(F)F)c12 [4-Ethoxy-7-(1-oxy-pyridin-3-yl)-2-(piperazin-1-yl)-9-trifluoromethyl-pyrido[3′,2′:4,5]thieno[3,2-d]pyrimidine]
- IC50 (PDE-4A): 0.002 to 0.05 µM
- IC50 (TNFα release): < 2 µM

Compound: CCOc1nc(N2CCNCC2)nc2c1sc1nc(-c3cc[n+]([O-])cc3)cc(C(F)(F)F)c12 [4-Ethoxy-7-(1-oxy-pyridin-4-yl)-2-(piperazin-1-yl)-9-trifluoromethyl-pyrido[3′,2′:4,5]thieno[3,2-d]pyrimidine]
- IC50 (PDE-4A): 0.002 to 0.05 µM
- IC50 (TNFα release): < 2 µM

Compound: CCOc1nc(N2CCNCC2)nc2c1sc1nc(-c3ccc(-n4ccnc4)cc3)cc(C(F)(F)F)c12 [4-Ethoxy-7-(4-(1H-imidazol-1-yl)phenyl)-2-(piperazin-1-yl)-9-trifluoromethyl-pyrido[3′,2′:4,5]thieno[3,2-d]pyrimidine]
- IC50 (PDE-4A): < 0.002 µM
- IC50 (TNFα release): < 2 µM

Compound: CCOc1nc(N2CCNCC2)nc2c1sc1nc(-c3ccc(-c4ccoc4)cc3)nc(C)c12 [4-Ethoxy-7-(4-[3-furyl]-phenyl)-9-methyl-2-piperazin-1-yl-thieno[2,3-d:4,5-d′]dipyrimidine]
- IC50 (PDE-4A): < 0.002 µM
- IC50 (TNFα release): < 2 µM

Compound: CCOc1nc(N2CCNCC2)nc2c1sc1nc(-c3ccc(F)cc3)cc(C)c12 [4-Ethoxy-7-(4-fluoro-phenyl)-9-methyl-2-(piperazin-1-yl)-pyrido[3′,2′:4,5]thieno[3,2-d]pyrimidine]
- IC50 (PDE-4A): 0.002 to 0.05 µM
- IC50 (TNFα release): < 2 µM

Compound: CCOc1nc(N2CCNCC2)nc2c1sc1nc(-c3ccc(OC)cc3)cc(C)c12 [4-Ethoxy-7-(4-methoxy-phenyl)-9-methyl-2-(piperazin-1-yl)-pyrido[3′,2′:4,5]thieno[3,2-d]pyrimidine]
- IC50 (PDE-4A): 0.002 to 0.05 µM
- IC50 (TNFα release): < 2 µM

Compound: CCOc1nc(N2CCNCC2)nc2c1sc1nc(N3CCOCC3)cc(-c3ccccc3)c12 [4-Ethoxy-7-morpholino-9-phenyl-2-(piperazin-1-yl)-pyrido[3′,2′:4,5]thieno[3,2-d]pyrimidine]
- IC50 (PDE-4A): 0.002 to 0.05 µM
- IC50 (TNFα release): < 2 µM

Compound: CCOc1nc(N2CCNCC2)nc2c1sc1nc(-c3ccc(-c4cc[nH]c4)cc3)nc(C)c12 [4-Ethoxy-9-methyl-2-piperazin-1-yl-7-(4-[3-pyrrolyl]-phenyl)-thieno[2,3-d:4,5-d′]dipyrimidine]
- IC50 (PDE-4A): 0.002 to 0.05 µM
- IC50 (TNFα release): < 2 µM

Compound: CCOc1nc(N2CCNCC2)nc2c1sc1nc(-c3ccc(-c4cccc(N)c4)cc3)nc(C)c12 [7-(3′-Aminobiphen-4-yl)-4-ethoxy-9-methyl-2-piperazin-1-yl-thieno[2,3-d:4,5-d′]dipyrimidine]
- IC50 (PDE-4A): < 0.002 µM
- IC50 (TNFα release): < 2 µM

Compound: CCOc1nc(N2CCNCC2)nc2c1sc1nc(C)c(Cc3ccc(N)cc3)c(C)c12 [8-(4-Amino-benzyl)-4-ethoxy-7,9-dimethyl-2-(piperazin-1-yl)-pyrido[3′,2′:4,5]thieno[3,2-d]pyrimidine]
- IC50 (PDE-4A): 0.002 to 0.05 µM
- IC50 (TNFα release): < 2 µM

Compound: CCOc1nc(N2CCNCC2)nc2c1sc1nc(N3CCOCC3)c3c(c12)CCCC3 [8-Ethoxy-5-morpholino-10-piperazin-1-yl-pyrimido[4′,5′:4,5]thieno[2,3-c]-1,2,3,4-tetrahydro-isoquinoline]
- IC50 (PDE-4A): 0.002 to 0.05 µM
- IC50 (TNFα release): < 2 µM

Compound: CCCOc1nc(N2CCNCC2)nc2c1sc1nc(-c3ccccc3)cc(C)c12 [9-Methyl-7-phenyl-2-(piperazin-1-yl)-4-n-propoxy-pyrido[3′,2′:4,5]thieno[3,2-d]pyrimidine]
- IC50 (PDE-4A): 0.002 to 0.05 µM
- IC50 (TNFα release): < 2 µM

Compound: CCOc1nc(N2CCNCC2)c2sc3nc(-c4ccccc4)nc(C)c3c2n1 [Example 2, 2-ethoxy-9-methyl-4-piperazin-1-yl-7-phenyl-thieno[2,3-d:4,5-d′]dipyrimidine]
- melting point: > 310 °C

Compound: C/C=C/C=C/C(O)c1ccc(-c2nc(C)c3c(n2)sc2c(OCC)nc(N4CCNCC4)nc23)cc1 (stereo not shown) [Example 6, 4-ethoxy-7-(4-[{2E,4E}-1-hydroxyhexa-2,4-dienyl]phenyl)-9-methyl-2-piperazin-1-yl-thieno[2,3-d:4,5-d′]dipyrimidine]
- melting point: 149 to 150 °C

Compound: CCSc1nc(N2CCNCC2)c2sc3nc(-c4ccccc4)cc(C)c3c2n1 [Example 13, 2-ethylthio-9-methyl-7-phenyl-4-piperazin-1-yl-pyrido-[3′,2′:4,5]thieno[3,2-d]pyrimidine]
- melting point: 150 to 154 °C

Compound: CCOc1nc(N2CCNCC2)nc2c1sc1nc(-c3ccc(NC=O)cc3)cc(C(F)(F)F)c12 [N-(4-(4-Ethoxy-9-trifluoromethyl-2-piperazin-1-yl-pyrido[3′,2′:4,5]thieno[3,2-d]pyrimidin-7-yl)-phenyl)-formamide]
- IC50 (PDE-4A): < 0.002 µM
- IC50 (TNFα release): < 2 µM

Compound: CCOc1nc(N2CCNCC2)nc2c1sc1nc(-c3ccc(NC(=O)c4ccncc4)cc3)cc(C(F)(F)F)c12 [N-(4-(4-Ethoxy-9-trifluoromethyl-2-piperazin-1-yl-pyrido[3′,2′:4,5]thieno[3,2-d]pyrimidin-7-yl)-phenyl)-isonicotinamide]
- IC50 (PDE-4A): < 0.002 µM
- IC50 (TNFα release): < 2 µM

Compound: CCOc1nc(N2CCNCC2)nc2c1sc1nc(-c3ccc(NC(=O)c4cccnc4)cc3)cc(C(F)(F)F)c12 [N-(4-(4-Ethoxy-9-trifluoromethyl-2-piperazin-1-yl-pyrido[3′,2′:4,5]thieno[3,2-d]pyrimidin-7-yl)-phenyl)-nicotinamide]
- IC50 (PDE-4A): < 0.002 µM
- IC50 (TNFα release): < 2 µM

Compound: CCOc1nc(N2CCNCC2)nc2c1sc1nc(-c3ccc(C(N)=NO)cc3)cc(C(F)(F)F)c12 [N′-Hydroxy-4-(4-ethoxy-9-trifluoromethyl-2-piperazin-1-yl-pyrido[3′,2′:4,5]thieno[3,2-d]pyrimidin-7-yl)-benzamidine bistrifluoroacetate]
- IC50 (PDE-4A): < 0.002 µM
- IC50 (TNFα release): < 2 µM
